By IC50 is commonly meant the point on the concentration scale where inhibition reaches its midpoint. The low end stands for higher potency, the high end for lower potency.

The subject of the first assay is spontaneously hypertensive rat, renal hypertensive rat and deoxycortisone acetate salt hypertensive rat models.
Test: not given
As to conditions: control rats; cited from earlier work.
Consider `C[C@@H](N)[C@H]1CC[C@H](C(=O)Nc2ccncc2)CC1` [Example Y-27632, Y-27632], for which the “blood pressure in control rats” value is given as “only a minor effect on blood pressure”.

Still in this assay, the particulars now being: three rat models of hypertension; cited from earlier work.
On to `C[C@@H](N)[C@H]1CC[C@H](C(=O)Nc2ccncc2)CC1` [Example Y-27632, Y-27632], for which the blood pressure result is listed as “significantly decrease blood pressure”.

The subject of another assay is IL-1 beta-induced coronary stenosis.
Test: not given
The following applies: long term treatment; cited from earlier work.
As for `O=S(=O)(c1cccc2cnccc12)N1CCCNCC1` [fasudil], the coronary constrictive remodeling result was “promote a regression of coronary constrictive remodeling” and the coronary stenosis entry is “progressively reduce coronary stenosis”.

The target of the next assay is ROCK2 (Homo sapiens (Human), UniProt O75116). The assay is described as follows: ROCK assay (Caliper LABCHIP peptide phosphorylation). Type of assay: biochemical. As to conditions: 5 μM ATP, 1.5 μM peptide substrate. In outline: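 Human ROCK2 reaction with 5 μM ATP and 1.5 μM FITC-labelled peptide substrate in 20 mM HEPES pH 7.5, 20 mM MgCl2, 4 mM DTT, DMSO <2%; stopped with EDTA. Phosphorylated and unphosphorylated peptide separated by microfluidic mobility shift; IC50 from dose-response curve fit.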
ROCK2, sequence (O75116 whole entry, species assumed): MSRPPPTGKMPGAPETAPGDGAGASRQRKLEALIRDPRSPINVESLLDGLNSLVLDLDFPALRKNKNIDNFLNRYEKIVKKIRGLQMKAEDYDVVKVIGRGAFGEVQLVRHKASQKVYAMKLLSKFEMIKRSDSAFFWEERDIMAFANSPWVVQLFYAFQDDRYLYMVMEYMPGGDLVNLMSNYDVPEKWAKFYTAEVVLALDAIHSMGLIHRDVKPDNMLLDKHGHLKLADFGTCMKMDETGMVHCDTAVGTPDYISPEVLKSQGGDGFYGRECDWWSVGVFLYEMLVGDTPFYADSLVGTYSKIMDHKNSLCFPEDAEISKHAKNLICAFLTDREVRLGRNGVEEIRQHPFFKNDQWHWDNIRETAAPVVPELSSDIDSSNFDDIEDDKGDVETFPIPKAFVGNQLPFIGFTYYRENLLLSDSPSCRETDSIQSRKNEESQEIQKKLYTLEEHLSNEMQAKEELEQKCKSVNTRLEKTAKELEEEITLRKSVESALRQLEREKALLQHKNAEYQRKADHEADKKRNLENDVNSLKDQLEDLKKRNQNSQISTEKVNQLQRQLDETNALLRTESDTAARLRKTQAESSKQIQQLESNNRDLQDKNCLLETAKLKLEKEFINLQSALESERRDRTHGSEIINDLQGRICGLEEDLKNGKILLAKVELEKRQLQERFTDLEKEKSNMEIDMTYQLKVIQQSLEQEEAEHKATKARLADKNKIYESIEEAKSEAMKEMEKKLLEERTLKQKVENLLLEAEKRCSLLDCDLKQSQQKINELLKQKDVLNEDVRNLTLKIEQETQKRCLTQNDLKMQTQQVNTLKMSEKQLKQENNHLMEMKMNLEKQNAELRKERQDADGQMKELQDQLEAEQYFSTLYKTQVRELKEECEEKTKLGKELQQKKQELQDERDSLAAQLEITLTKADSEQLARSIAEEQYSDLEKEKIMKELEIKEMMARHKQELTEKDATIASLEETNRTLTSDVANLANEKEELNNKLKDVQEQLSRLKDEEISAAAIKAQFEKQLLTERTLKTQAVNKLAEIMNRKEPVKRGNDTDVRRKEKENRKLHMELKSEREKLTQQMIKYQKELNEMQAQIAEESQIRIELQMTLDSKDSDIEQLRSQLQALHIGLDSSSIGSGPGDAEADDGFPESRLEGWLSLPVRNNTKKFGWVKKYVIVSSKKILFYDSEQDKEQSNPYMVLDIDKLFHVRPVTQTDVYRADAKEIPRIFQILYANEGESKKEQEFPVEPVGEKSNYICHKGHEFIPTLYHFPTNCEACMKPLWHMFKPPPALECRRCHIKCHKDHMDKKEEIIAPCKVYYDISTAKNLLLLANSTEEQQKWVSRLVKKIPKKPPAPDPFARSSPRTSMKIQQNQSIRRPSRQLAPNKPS
In the case of `NC(=O)c1cccnc1O[C@H]1C[C@]2(C1)C[C@H](N1C(=O)CN(c3cccc(F)c3)C1=O)C2` (some centres unmarked) [Example 85, 2-(((αR)-6-(3-(3-fluorophenyl)-2,5-dioxoimidazolidin-1-yl)spiro[3.3]heptan-2-yl)oxy)nicotinamide], 6 nM corresponded to half-maximal inhibition (IC50).
Consider `NC(=O)c1cccnc1O[C@H]1C[C@]2(C1)C[C@H](N1C(=O)CN(c3ccc(C(F)(F)F)cc3)C1=O)C2` (some centres unmarked) [Example 87, 2-(((αR)-6-(2.5-dioxo-3-(4-(trifluoromethyl)phenyl)imidazolidin-1-yl)spiro[3.3]heptan-2-yl)oxy)nicotinamide], for which the IC50 was determined as 5 nM. This IC50 and that of the compound before are within 1.5-fold of each other.
`CC(C)(O)COc1cccc(N2CC(=O)N([C@H]3C[C@@]4(C[C@H](Oc5ncccc5C(N)=O)C4)C3)C2=O)c1` (some centres unmarked) [Example 88, 2-(((αR)-6-(3-(3-(2-hydroxy-2-methylpropoxy)phenyl)-2,5-dioxoimidazolidin-1-yl)spiro[3.3]heptan-2-yl)oxy)nicotinamide] had a 50% inhibitory concentration (IC50) of 55 nM.
Take `CS(=O)(=O)c1cccc(N2CC(=O)N([C@H]3C[C@@]4(C[C@H](Oc5ncccc5C(N)=O)C4)C3)C2=O)c1` (some centres unmarked) [Example 89, 2-(((αR)-6-(3-(3-(methylsulfonyl)phenyl)-2,5-dioxoimidazolidin-1-yl)spiro[3.3]heptan-2-yl)oxy)nicotinamide]: the midpoint of inhibition, the IC50, lay at 13 nM.
With `C/C(=C\c1ccccc1)CC1NC(=O)N([C@H]2C[C@@]3(C[C@H](Oc4ncccc4C(N)=O)C3)C2)C1=O` (some centres unmarked) [Example 90, 2-(((αR)-6-(4-((E)-2-methyl-3-phenylallyl)-2,5-dioxoimidazolidin-1-yl)spiro[3.3]heptan-2-yl)oxy)nicotinamide], the IC50 turned out to be 21 nM. This IC50 lies about 1.6-fold higher than the previous one.
On the same count and under the same terms, to `[H][C@]1(Oc2ncccc2C(N)=O)C[C@]2(C[C@@H](N3C(=O)NC(CC(C)Cc4ccccc4)C3=O)C2)C1` (stereo partly drawn) [Example 91, 2-(((aR)-6-(4-(2-methyl-3-phenylpropyl)-2,5-dioxoimidazolidin-1-yl)spiro[3.3]heptan-2-yl)oxy)nicotinamide] belongs 29 nM; to `C[C@H](C[C@@H]1NC(=O)N([C@H]2C[C@@]3(C[C@H](Oc4ncccc4C(N)=O)C3)C2)C1=O)C(F)(F)F` (stereo partly drawn) [Example 92, 2-(((αR)-6-((S)-2,5-dioxo-4-((R)-3,3,3-trifluoro-2-methylpropyl)imidazolidin-1-yl)spiro[3.3]heptan-2-yl)oxy)nicotinamide], 6 nM.
`C[C@@H](C[C@@H]1NC(=O)N([C@H]2C[C@@]3(C[C@H](Oc4ncccc4C(N)=O)C3)C2)C1=O)C(F)(F)F` (stereo partly drawn) [Example 93, 2-(((αR)-6-((S)-2,5-dioxo-4-((S)-3,3,3-trifluoro-2-methylpropyl)imidazolidin-1-yl)spiro[3.3]heptan-2-yl)oxy)nicotinamide] gave an IC50 of 9 nM.
For `CC(C)(CC1NC(=O)N([C@H]2C[C@@]3(C[C@H](Oc4ncccc4C(N)=O)C3)C2)C1=O)c1ccccc1` (some centres unmarked) [Example 94, 2-(((αR)-6-(2,5-dioxo-4-(2-phenyl-2-methylpropyl)imidazolidin-1-yl)spiro[3.3]heptan-2-yl)oxy)nicotinamide], it took 27 nM to reach half-maximal inhibition (IC50).
Compound `CC(C[C@@H]1NC(=O)N([C@H]2C[C@@]3(C[C@H](Oc4ncccc4C(N)=O)C3)C2)C1=O)c1ccccc1` (stereo partly drawn) [Example 95, 2-(((αR)-6-((S)-2,5-dioxo-4-(2-phenyl-propyl)imidazolidin-1-yl)spiro[3.3]heptan-2-yl)oxy)nicotinamide] registered an IC50 of 6 nM. Compared with the last compound, the IC50 is about 4.5-fold lower.
Still for that read-out and setting: the value for `CC(C[C@H]1NC(=O)N([C@H]2C[C@@]3(C[C@H](Oc4ncccc4C(N)=O)C3)C2)C1=O)c1ccccc1` (stereo partly drawn) [Example 96, 2-(((αR)-6-((R)-2,5-dioxo-4-(2-phenyl-propyl)imidazolidin-1-yl)spiro[3.3]heptan-2-yl)oxy)nicotinamide] was 264 nM; that for `NC(=O)c1cccnc1O[C@H]1CC2(C1)C[C@H](N1C(=O)N[C@@H](CC3CCC(NC(=O)OCc4ccccc4)CC3)C1=O)C2` (some centres unmarked) [Example 97] was 28 nM; that for `NC(=O)c1cccnc1O[C@H]1C[C@]2(C1)C[C@H](N1C(=O)NC(CC3CCN(C(=O)OCc4ccccc4)CC3)C1=O)C2` (some centres unmarked) [Example 98, 2-(((αR)-6-(2,5-dioxo-4-(N-benzyloxycarbonyl-piperidin-4-ylmethyl)imidazolidin-1-yl)spiro[3.3]heptan-2-yl)oxy)nicotinamide] was 52 nM.
`NC(=O)c1cccnc1O[C@H]1C[C@]2(C1)C[C@H](N1C(=O)NC(C[C@@H]3C[C@H]4CC[C@@H](C3)N4C(=O)OCc3ccccc3)C1=O)C2` (some centres unmarked) [Example 99, benzyl 3-((1-((αR)-6-((3-carbamoylpyridin-2-yl)oxy)spiro[3.3]heptan-2-yl)-2,5-dioxoimidazolidin-4-yl)methyl)-8-azabicyclo[3.2.1] octane-8-carboxylate] registered an IC50 of 659 nM.
On the same count and under the same terms, the value for `[H][C@]1(Oc2ncccc2C(N)=O)C[C@@]2(C[C@H](N3C(=O)N[C@@H](C[C@H]4CC[C@H](NC(=O)c5ccccc5)CC4)C3=O)C2)C1` (some centres unmarked) [Example 100] was 52 nM.
For `NC(=O)c1cccnc1O[C@H]1C[C@]2(C1)C[C@H](N1C(=O)NC(CC3CCN(C(=O)c4ccccc4)CC3)C1=O)C2` (some centres unmarked) [Example 101, 2-(((αR)-6-(2,5-dioxo-4-(N-benzoylpiperidin-4-ylmethyl)imidazolidin-1-yl)spiro[3.3]heptan-2-yl)oxy)nicotinamide], the IC50 turned out to be 146 nM.
Compound `[H][C@]1(Oc2nc(OC)ccc2C(N)=O)C[C@]2(C[C@@H](N3C(=O)N[C@@H](CC(C)C(F)(F)F)C3=O)C2)C1` (some centres unmarked) [Example 102] returned an IC50 of 5 nM. This IC50 lies about 29-fold lower than the previous one.

The next assay deals with neointimal formation in rats.
Test: not given
The following applies: cited from earlier work.
Consider `C[C@@H](N)[C@H]1CC[C@H](C(=O)Nc2ccncc2)CC1` [Example Y-27632, Y-27632], for which the neointimal formation entry was “inhibited neointimal formation”.

A further assay concerns Dahl salt-sensitive rats.
Test: not given
The following applies: rat, in vivo; cited from earlier work.
Consider `C[C@@H](N)[C@H]1CC[C@H](C(=O)Nc2ccncc2)CC1` [Example Y-27632, Y-27632], for which the “ventricular hypertrophy, fibrosis and function” value was “improve ventricular hypertrophy, fibrosis and function”.

Source of the values: patent US11447487B2, “Spiroheptanyl hydantoins as rock inhibitors” (BRISTOL-MYERS SQUIBB COMPANY, priority 2017, dated 2022).
